Where two headings read alike, the source gives them in different places. *1 amine or outer side, *2 acyl side, *3 side chain or, on linkers, in order; H or OH if unused. Where a SMILES comes first, the peptide text is derived from it. [ ]: non-standard residue; d: D form. The star is where a group is joined. Suc = O=C(CCC(=O)[*:2])[*:1]; Boc = CC(C)(C)OC(=O)*; OBn = c1ccc(CO*)cc1
Assays:
[1] = in vitro; format: cell-based, African green monkey; conditions: Cytotoxicity CC50
Procedure: (§1) IC50 values corresponding to 50% inhibition of P. falciparum growth were determined by SYBR Green assay, and the assessment of cytotoxicity was performed on Vero cells (cell line from the kidney of a normal adult African green monkey), as previously published. The selectivity index corresponded to the cytotoxicity/activity ratio.

[2] = system: P. falciparum strain F32-ART (artemisinin-resistant); experiment: microbe, parasite or virus in culture; format: cell-based, Plasmodium falciparum; conditions: for Selectivity Index CC50/IC50: cytotoxicity (Vero cells)/antiplasmodial activity (F32-ART) ratio
Source text: The antimalarial activity of peptide-alkoxyamine hybrids was first evaluated in the in vitro antiproliferative test (IC50) using the artemisinin-resistant strain F32-ART (Table 2, Table S1). The roles of the N-substitution of the alkoxyamine moiety (TEMPO- or DBNO-based, for example, A3L/A8L, line 1/line 10), of the configuration (L or D of the peptide, A3L/A3D, line 1/line 2), of the N-protection of the peptide (A3L/A4L or A5L, line 1/ lines 3 and 5) were examined. According to standard rules in the malaria field, only molecules having IC50 values below 1 μM were considered active.
The F32-ART (artemisinin-resistant) strain and the F32-TEM (artemisinin-sensitive strain) were cultured according to Trager and Jensen in RPMI 1640 medium (Fisher Scientific, Illkirch, France) supplemented with 5% human serum (Etablissement français du Sang, Toulouse, France) at 2% hematocrit with type O human blood (Etablissement français du Sang, Toulouse, France), 37 °C, and 5% CO2 in a humidified atmosphere.
as §1

[3] = system: Vero cells; conditions: cited from earlier work
[4] = Kinetic analysis of alkoxyamine bond homolysis by EPR; format: physicochemical; conditions: Equation (2), A = 2.4 · 10^14 s^−1
Procedure: The kinetic homolysis for peptide-alkoxyamines reported in Table 1 was recorded in EPR using two solvents, tert-butylbenzene (t-BuPh) or an n-propanol:water (1:1, v:v) mixture. The growth of nitroxide was recorded in the presence of an alkyl radical scavenger, i.e., O2 here, to suppress the back reaction (kc in Scheme 4), as already reported.
Homolysis rate constants kd are given by Equation (1) ([nitroxide]∞ = [alkoxyamine]0 = 0.1 mM), and the subsequent activation energy values Ea are given by Equation (2), as follows:(1) lnnitroxide∞−nitroxidet/nitroxide∞=−kd·t (2) Ea=−RTlnkd/A

[5] = system: F32-ART parasites at the quiescent stage; experiment: Quiescent-stage Survival Assay (QSA); format: cell-based, Plasmodium falciparum; conditions: 700 nM DHA, compound at 7 µM
Procedure: In this assay, parasites were exposed to dihydroartemisinin (DHA) alone to induce quiescence, prior the addition of the drug to be tested for 48 h, and then the parasite recrudescence was monitored over a maximum of 4 weeks. Activity against quiescent parasites was evidenced by a delay in recrudescence time over 6 days between the conditions “DHA 6 h / DHA 48 h” and “DHA 6 h/(DHA + molecule) 48 h”. Atovaquone was used as a positive control, and its activity against quiescent parasites was here confirmed, as expected, by an extended delay of 11 days in recrudescence time (Figure 5). By contrast, no activity of A8L and A3L against quiescent parasites was evidenced in the QSA, with similar recrudescence time between the conditions “DHA 6 h/DHA 48 h” and “DHA 6 h/(DHA + molecule) 48 h”. […] To understand this phenomenon, we explored the parasite response during treatment with these hybrid compounds.
The QSA was performed according to Reyser et al.. Briefly, ART-resistant ring-stage parasites at 3% parasitemia were exposed for 6 h to 700 nM of DHA (dihydroartemisinin) to induce quiescence or were exposed to no drugs (control condition). After that, the compound to be tested was added in both conditions […]. At the end of the treatment, the drugs were washed off with RPMI-1640, and parasites were replaced in drug-free conditions. Blood smears were performed to follow parasitemia until the day the cultures reached their starting parasitemia, defined as the recrudescence day. If after 30 days no parasite recrudescence was observed, then the data were censored. Data analysis was performed using Kaplan–Meier survival curves. Statistical significance was ascertained by using a log-rank (Mantel-Cox) test using GraphPad Prism 7 software (San Diego, CA, USA).

[6] = Plasmodium falciparum, F32, read-out: Antiplasmodial Activity IC50, strain F32-ART, SYBR Green assay, mean ± SEM of 3 to 6 experiments
[7] = read-out: Antiplasmodial Activity IC50, strain F32-ART, SYBR Green assay, mean ± SEM of 3 to 6 experiments
[8] = strain F32-ART, SYBR Green assay, mean ± SEM of 3 to 6 experiments, read-out: Antiplasmodial Activity IC50

SMILES | CC50 ([1]; African green monkey) | CC50 [3] | IC50 [2, 8] | further results
CC(ON1C(C)(C)CCCC1(C)C)c1ccc(NC(=O)[C@@H](Cc2ccccc2)NC(=O)[C@H](NC(=O)[C@@H](Cc2ccccc2)NC(=O)OC(C)(C)C)C(C)C)cc1 (some centres unmarked) [A3D] | > 50 µM |  |  | IC50 [2, 6]: > 50 µM
CC(ON1C(C)(C)CCCC1(C)C)c1ccc(NC(=O)[C@@H](Cc2ccccc2)NC(=O)[C@H](NC(=O)[C@H](N)Cc2ccccc2)C(C)C)cc1 (some centres unmarked) [A5D] |  |  |  | Selectivity Index CC50/IC50 [2]: 1.0; IC50 [2, 7]: 2.25 ± 0.17 µM
CC(ON1C(C)(C)CCCC1(C)C)c1ccc(NC(=O)[C@H](Cc2ccccc2)NC(=O)[C@@H](NC(=O)[C@H](Cc2ccccc2)NC(=O)CCC(=O)OCc2ccccc2)C(C)C)cc1 (some centres unmarked) [A6L] |  | > 50 µM |  | IC50 [2, 6]: 7 µM; Selectivity Index CC50/IC50 [2]: >6.9; IC50 [2, 7]: 7.2 µM
CC(ON(C(C)(C)C)C(C)(C)C)c1ccc(NC(=O)[C@@H](Cc2ccccc2)NC(=O)[C@@H](NC(=O)[C@H](Cc2ccccc2)NC(=O)OC(C)(C)C)C(C)C)cc1 (stereo partly drawn) [A8DL] | > 50 µM |  |  | activation energy Ea ([4]; in t-BuPh): 119.3 kJ/mol; activation energy Ea ([4]; in water/n-PrOH 1/1 v/v): 118.4 kJ/mol; IC50 [2, 6]: 0.87 ± 0.04 µM; Selectivity Index CC50/IC50 [2]: >57
CC(ON(C(C)(C)C)C(C)(C)C)c1ccc(NC(=O)[C@@H](Cc2ccccc2)NC(=O)[C@H](NC(=O)[C@@H](Cc2ccccc2)NC(=O)OC(C)(C)C)C(C)C)cc1 (some centres unmarked) [A8D] | > 50 µM |  |  | activation energy Ea ([4]; in t-BuPh): 121.1 kJ/mol; activation energy Ea ([4]; in water/n-PrOH 1/1 v/v): 118.5 kJ/mol; IC50 [2, 6]: 50 µM
CC(ON(C(C)(C)C)C(C)(C)C)c1ccc(NC(=O)[C@@H](Cc2ccccc2)NC(=O)OC(C)(C)C)cc1 (some centres unmarked) [A9D] |  |  |  | activation energy Ea ([4]; in t-BuPh): 120.8 kJ/mol; activation energy Ea ([4]; in water/n-PrOH 1/1 v/v): 118.9 kJ/mol
CC(ON(C(C)(C)C)C(C)(C)C)c1ccc(NC(=O)[C@H](Cc2ccccc2)NC(=O)OC(C)(C)C)cc1 (some centres unmarked) [A9L] |  |  |  | activation energy Ea ([4]; in t-BuPh): 120.5 kJ/mol; activation energy Ea ([4]; in water/n-PrOH 1/1 v/v): 118.9 kJ/mol
C[C@@H]1CC[C@H]2[C@@H](C)C(=O)O[C@@H]3O[C@@]4(C)CC[C@@H]1[C@]32OO4 [ART, Artemisinin, reference compound] | > 50 µM |  |  | IC50 [2, 6]: 0.031 ± 0.006 µM; Selectivity Index CC50/IC50 [2]: >1500
CC(ON(C(C)(C)C)C(C)(C)C)c1ccc(NC(=O)[C@@H](Cc2ccccc2)NC(=O)[C@H](NC(=O)[C@H](N)Cc2ccccc2)C(C)C)cc1 (some centres unmarked) [AW230] | 9 ± 1.2 µM |  |  | IC50 [2, 6]: 3.73 ± 0.26 µM
O=C1C(O)=C([C@H]2CC[C@H](c3ccc(Cl)cc3)CC2)C(=O)c2ccccc21 [Atovaquone, reference compound] |  |  |  | delay in recrudescence time between DHA 6 h/DHA 48 h and DHA 6 h/(DHA + molecule) 48 h [5]: 11 days
CC(C)[C@@H](NC(=O)[C@@H](Cc1ccccc1)NC(=O)OC(C)(C)C)C(=O)N[C@H](Cc1ccccc1)C(=O)OCc1ccccc1 [P6D, Boc-D-Phe-D-Val-D-Phe–OBn] (Boc-[dF]-[dV]-[dF]-OBn) | 3.2 ± 0.2 µM |  | > 50 µM | 
CC(C)[C@H](NC(=O)[C@H](Cc1ccccc1)NC(=O)OC(C)(C)C)C(=O)N[C@@H](Cc1ccccc1)C(=O)OCc1ccccc1 [P6L] (Boc-Phe-Val-Phe-OBn) | > 50 µM |  | > 50 µM | 
CC(C)[C@@H](NC(=O)[C@@H](Cc1ccccc1)NC(=O)OC(C)(C)C)C(=O)N[C@H](Cc1ccccc1)C(=O)O [P7D] (Boc-[dF]-[dV]-[dF]-OH) | > 50 µM |  | > 10 µM | 
CC(C)[C@H](NC(=O)[C@H](Cc1ccccc1)NC(=O)OC(C)(C)C)C(=O)N[C@@H](Cc1ccccc1)C(=O)O [P7L, Boc-L-Phe-L-Val-L-Phe–OH] (Boc-Phe-Val-Phe-OH) |  | > 50 µM | > 50 µM | 
CC(C)[C@@H](NC(=O)[C@H](N)Cc1ccccc1)C(=O)N[C@H](Cc1ccccc1)C(=O)OCc1ccccc1 [P8D] (H-[dF]-[dV]-[dF]-OBn) | > 50 µM |  | > 50 µM | 
CC(C)[C@H](NC(=O)[C@@H](N)Cc1ccccc1)C(=O)N[C@@H](Cc1ccccc1)C(=O)OCc1ccccc1 [P8L] (H-Phe-Val-Phe-OBn) | > 50 µM |  | > 50 µM | 
CC(C)[C@H](NC(=O)[C@H](Cc1ccccc1)NC(=O)CCC(=O)OCc1ccccc1)C(=O)N[C@@H](Cc1ccccc1)C(=O)OCc1ccccc1 [P9L, N-(Bn)succinyl-L-Phe-L-Val-L-Phe–OBn] | > 50 µM |  | > 50 µM | 
CC(C)[C@H](NC(=O)[C@H](Cc1ccccc1)NC(=O)CCC(=O)O)C(=O)N[C@@H](Cc1ccccc1)C(=O)O [P10L] (Suc-Phe-Val-Phe-OH) |  | > 50 µM | > 50 µM | 
CC(C)[C@@H](NC(=O)[C@H](N)Cc1ccccc1)C(=O)N[C@H](Cc1ccccc1)C(=O)O [P11D] (H-[dF]-[dV]-[dF]-OH; N-terminus and C-terminus assumed) | > 50 µM |  |  | 
CC(C)[C@H](NC(=O)[C@@H](N)Cc1ccccc1)C(=O)N[C@@H](Cc1ccccc1)C(=O)O [P11L] (H-Phe-Val-Phe-OH) |  | > 50 µM | > 10 µM | 
CC(C)[C@H](NC(=O)[C@H](Cc1ccccc1)NC(=O)CCC(=O)OCc1ccccc1)C(=O)N[C@@H](Cc1ccccc1)C(=O)O [P12L] |  | > 50 µM | > 10 µM | 
CC(C)[C@H](NC(=O)[C@@H](N)Cc1ccccc1)C(=O)N[C@@H](Cc1ccccc1)C(=O)O [P18L] (H-Phe-Val-Phe-OH) |  | > 25 µM | > 5 µM | 
CCc1ccc(NC(=O)[C@@H](Cc2ccccc2)NC(=O)[C@H](NC(=O)[C@@H](Cc2ccccc2)NC(=O)OC(C)(C)C)C(C)C)cc1 [P21D] |  | > 50 µM | > 50 µM | 
CCc1ccc(NC(=O)[C@H](Cc2ccccc2)NC(=O)[C@@H](NC(=O)[C@H](Cc2ccccc2)NC(=O)OC(C)(C)C)C(C)C)cc1 [P21L] |  | > 50 µM | > 50 µM | 
CCc1ccc(NC(=O)[C@@H](Cc2ccccc2)NC(=O)[C@H](NC(=O)[C@H](N)Cc2ccccc2)C(C)C)cc1 [P22D] |  |  |  | CC50 [1]: 11 ± 1.6 µM
CCc1ccc(NC(=O)[C@H](Cc2ccccc2)NC(=O)[C@@H](NC(=O)[C@@H](N)Cc2ccccc2)C(C)C)cc1 [P22L] |  | > 50 µM | > 10 µM | 
CCc1ccc(NC(=O)[C@H](Cc2ccccc2)NC(=O)[C@@H](NC(=O)[C@H](Cc2ccccc2)NC(=O)CCC(=O)OCc2ccccc2)C(C)C)cc1 [P23L] |  | > 50 µM | > 10 µM | 
CCc1ccc(NC(=O)[C@H](Cc2ccccc2)NC(=O)[C@@H](NC(=O)[C@H](Cc2ccccc2)NC(=O)CCC(=O)O)C(C)C)cc1 [P24L] |  | > 50 µM | > 10 µM | 
CC(ON1C(C)(C)CCCC1(C)C)c1ccccc1 (centres unmarked) [compound 4, reference compound] |  |  |  | IC50 [2, 6]: > 10 µM

From publication PMC10974622, “Hybrid Peptide-Alkoxyamine Drugs: A Strategy for the Development of a New Family of Antiplasmodial Drugs” (Molecules, 2024)
